Measured values from ChEMBL document CHEMBL2346634, “Synthesis and biological activity of 4-substituted benzoxazolone derivatives as a new class of sEH inhibitors with high anti-inflammatory activity in vivo” (Bioorg Med Chem Lett, 2013).

Columns and labels:
[1] = target: T1, Bifunctional epoxide hydrolase 2 (Homo sapiens) (UniProt P34913); assay: Inhibition of recombinant human sEH expressed in Escherichia coli assessed as inhibition of substrate PHOME hydrolysis to 6-methoxy-2-naphthaldehyde at 10 ug/ml after 5 mins by fluorescence assay
T1 sequence (whole entry): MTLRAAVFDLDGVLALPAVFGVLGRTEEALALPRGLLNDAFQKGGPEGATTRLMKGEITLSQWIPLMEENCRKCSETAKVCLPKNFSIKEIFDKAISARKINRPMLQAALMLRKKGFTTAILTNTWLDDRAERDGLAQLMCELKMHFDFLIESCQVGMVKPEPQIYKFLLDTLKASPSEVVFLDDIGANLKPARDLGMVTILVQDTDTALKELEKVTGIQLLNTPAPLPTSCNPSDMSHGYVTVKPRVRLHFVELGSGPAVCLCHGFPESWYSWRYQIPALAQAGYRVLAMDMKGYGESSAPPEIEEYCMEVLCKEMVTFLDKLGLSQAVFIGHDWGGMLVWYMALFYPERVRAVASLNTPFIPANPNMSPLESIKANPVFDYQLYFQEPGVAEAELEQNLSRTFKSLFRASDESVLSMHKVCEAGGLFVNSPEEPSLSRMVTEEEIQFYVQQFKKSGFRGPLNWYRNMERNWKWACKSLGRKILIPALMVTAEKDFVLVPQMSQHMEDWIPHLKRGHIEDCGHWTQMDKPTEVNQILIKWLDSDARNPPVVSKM

Mus musculus = organism: Mus musculus; assay: animal or person; conditions: Kunming, Ear, po, read-out: INH
Description: Antiinflammatory activity in Kunming mouse assessed as inhibition of xylene-induced ear edema at 150 mg/kg, po administered 45 mins prior to xylene challenge measured 15 mins post challenge

[2] = target: T2, Bifunctional epoxide hydrolase 2 (Homo sapiens, UniProt P34913)
T2 sequence (P34913 whole entry): T1 sequence (whole entry)
Description: Inhibition of recombinant human sEH expressed in Escherichia coli assessed as inhibition of substrate PHOME hydrolysis to 6-methoxy-2-naphthaldehyde after 5 mins by fluorescence assay

Compound | inhibition [1] [%] | inhibition in vivo at 150 mg/kg (Mus musculus) [%] | IC50 [2] [µM]
O=c1[nH]c2c(OS(=O)(=O)c3ccccc3[N+](=O)[O-])cccc2o1 | 36.1 |  | 
CC(C)(C)OC(=O)NC(Cc1c[nH]c2ccccc12)C(=O)Oc1cccc2oc(=O)[nH]c12 (stereo not drawn) | 79.6 | 61 | 
O=C(Oc1cccc2oc(=O)[nH]c12)c1ccc(Cl)cc1 | 27.8 |  | 
Cc1ccccc1C(=O)Oc1cccc2oc(=O)[nH]c12 | 26.2 |  | 
O=c1[nH]c2c(OS(=O)(=O)c3ccc([N+](=O)[O-])cc3)cccc2o1 | 28.8 |  | 
O=C(Oc1cccc2oc(=O)[nH]c12)c1ccccc1Cl | 30.8 |  | 
O=c1[nH]c2c(OS(=O)(=O)c3ccc(Cl)cc3)cccc2o1 | 13.6 |  | 
O=c1[nH]c2c(O[C@@H]3O[C@H](CO)[C@@H](O)[C@H](O)[C@H]3O)cccc2o1 | 45.5 |  | 
O=c1[nH]c2c(OS(=O)(=O)c3ccccc3Cl)cccc2o1 | 15.2 |  | 
O=c1[nH]c2c(O[C@@H]3O[C@H](CO)[C@H](O)[C@H](O)[C@H]3O)cccc2o1 | 61 |  | 
CC(C)(C)OC(=O)NC(Cc1ccccc1)C(=O)Oc1cccc2oc(=O)[nH]c12 (stereo not drawn) | 90.8 | 64 | 2.67
CC(C)C(NC(=O)OC(C)(C)C)C(=O)Oc1cccc2oc(=O)[nH]c12 (stereo not drawn) | 48 | 46.5 | 
O=c1[nH]c2c(OS(=O)(=O)c3cccc([N+](=O)[O-])c3)cccc2o1 | 31.6 |  | 
Cc1cccc(S(=O)(=O)Oc2cccc3oc(=O)[nH]c23)c1 | 30.9 |  | 
O=C(Oc1cccc2oc(=O)[nH]c12)c1ccc([N+](=O)[O-])cc1 | 28.1 |  | 
CC(C)(C)OC(=O)NCC(=O)Oc1cccc2oc(=O)[nH]c12 | 95.5 | 54.5 | 17.2
Cc1ccccc1S(=O)(=O)Oc1cccc2oc(=O)[nH]c12 | 28 |  | 
CC(NC(=O)OC(C)(C)C)C(=O)Oc1cccc2oc(=O)[nH]c12 (stereo not drawn) | 95.7 | 40.7 | 16.4
CC(C)(C)OC(=O)N1CCCC1C(=O)Oc1cccc2oc(=O)[nH]c12 (stereo not drawn) | 101 | 51.5 | 1.72
O=c1[nH]c2c(OS(=O)(=O)c3ccccc3)cccc2o1 | 36 |  | 
Cc1cccc(C(=O)Oc2cccc3oc(=O)[nH]c23)c1 | 24.4 |  | 
Cc1ccc(C(=O)Oc2cccc3oc(=O)[nH]c23)cc1 | 98.3 |  | 1.07
O=c1[nH]c2c(OS(=O)(=O)c3cccc(Cl)c3)cccc2o1 | 24.5 |  | 
O=C(Oc1cccc2oc(=O)[nH]c12)c1ccccc1[N+](=O)[O-] | 29.2 |  | 
Cc1ccc(S(=O)(=O)Oc2cccc3oc(=O)[nH]c23)cc1 | 39.9 |  | 
O=C(Oc1cccc2oc(=O)[nH]c12)c1cccc(Cl)c1 | 25.3 |  | 
O=C(Oc1cccc2oc(=O)[nH]c12)c1ccccc1 | 28 |  | 
O=C(Oc1cccc2oc(=O)[nH]c12)c1cccc([N+](=O)[O-])c1 | 92.9 |  | 3
CSCCC(NC(=O)OC(C)(C)C)C(=O)Oc1cccc2oc(=O)[nH]c12 (stereo not drawn) | 99.6 | 24.8 | 3.02
